Test systems include Bacillus cereus; Escherichia coli; Staphylococcus aureus; Bacillus subtilis; Acinetobacter baumannii; Klebsiella pneumoniae; Pseudomonas aeruginosa.
What all share (experiment): ≥ marks a high value that may be exact or a test limit, other limits are often not marked, values filed in µg/mL are converted to µM
The test system of experiment [1] is Enterococcus faecalis ATCC 29212.
Experiment [2] concerns Escherichia coli DH5alpha.
Experiment [3] has as its system Klebsiella pneumoniae ATCC 13883.
Experiment [4] has as its system Pseudomonas aeruginosa ATCC 27853.
Experiment [5] concerns Salmonella enterica subsp. enterica serovar Typhimurium ATCC 14028.
In experiment [6] the test system is Staphylococcus aureus ATCC 25923.
In experiment [7] the test system is Bacillus subtilis KCTC 3068.
The test system of experiment [8] is Escherichia coli KCTC 1682.
Experiment [9] concerns Pseudomonas aeruginosa KCTC 1637.
Experiment [10] concerns Salmonella typhimurium KCTC 1926.
Experiment [11] relates to Staphylococcus aureus KCTC 1621.
Experiment [12] relates to Staphylococcus epidermidis KCTC 1917.
For experiment [13], the system named is Acinetobacter baumannii ATCC 19606.
Experiment [14] deals with Escherichia coli ATCC 25922.
Experiment [15] concerns Pseudomonas aeruginosa PAO1.

Each structure is given as a SMILES string. ≈ marks a conversion by molar mass, not a printed value.

Consider `CC(C)C[C@H](NC(=O)[C@@H](N)Cc1ccccc1)C(=O)NCC(=O)NCC(=O)N[C@H](C(=O)N[C@@H](Cc1ccccc1)C(=O)N[C@@H](CCCCN)C(=O)N[C@@H](CCCCN)C(=O)N[C@@H](C)C(=O)N[C@@H](CO)C(=O)N[C@@H](CCCCN)C(=O)N[C@H](C(=O)N[C@@H](Cc1ccccc1)C(=O)NCC(=O)N[C@@H](C)C(=O)N[C@H](C(=O)N[C@@H](Cc1ccccc1)C(=O)NCC(=O)N[C@@H](CCCCN)C(=O)N[C@H](C(=O)O)C(C)C)C(C)C)C(C)C)C(C)C` [FLGGVFKKASKVFGAVFGKV], for which the figures for the MIC in the experiment with Bacillus cereus, in the experiment with Escherichia coli and against Staphylococcus aureus were at least 61.3 µM, 15.3 µM (≈ 32 µg/mL) and over 123 µM, respectively.

For `CC[C@H](C)[C@H](NC(=O)CN)C(=O)NCC(=O)N[C@@H](CCCCN)C(=O)N[C@@H](C)C(=O)N[C@@H](CC(C)C)C(=O)N[C@@H](CCCCN)C(=O)N[C@@H](CCCCN)C(=O)N[C@@H](C)C(=O)N[C@@H](CCCCN)C(=O)N[C@@H](CCCCN)C(=O)NCC(=O)N[C@H](C(=O)NCC(=O)N[C@@H](C)C(=O)N[C@H](C(=O)N[C@@H](CC(C)C)C(=O)N[C@@H](CCCCN)C(=O)N[C@H](C(=O)N[C@@H](CC(C)C)C(=O)N[C@H](C(=O)N[C@H](C(=O)NCC(=O)N[C@@H](CC(C)C)C(=O)O)[C@@H](C)O)[C@@H](C)O)C(C)C)C(C)C)[C@@H](C)CC` [GIGKALKKAKKGIGAVLKVLTTGL], the MIC against Bacillus subtilis came out at 8 µM (≈ 18.9 µg/mL); in experiment [1], 32 µM (≈ 75.7 µg/mL); in experiment [2], 15 µM (≈ 35.5 µg/mL); in [3], 8 µM (≈ 18.9 µg/mL); in experiment [4], 45 µM (≈ 106 µg/mL); in experiment [5], 8 µM (≈ 18.9 µg/mL). The MIC in [6] stood at 4 µM (≈ 9.46 µg/mL).

`CC[C@H](C)[C@H](N)C(=O)NCC(=O)N[C@@H](CCCCN)C(=O)N[C@@H](CCCCN)C(=O)N[C@@H](Cc1ccccc1)C(=O)N[C@@H](CCCCN)C(=O)N[C@@H](CCCN=C(N)N)C(=O)N[C@H](C(=O)N[C@H](C(=O)N[C@@H](CCCCN)C(=O)N[C@@H](CCCN=C(N)N)C(=O)N[C@H](C(=O)N[C@@H](CCCCN)C(=O)N[C@@H](CCCCN)C(=O)N[C@@H](Cc1ccccc1)C(=O)N[C@@H](CC(C)C)C(=O)N[C@@H](CCCN=C(N)N)C(=O)N[C@@H](CCCCN)C(=O)N[C@@H](CC(C)C)C(=O)O)[C@@H](C)CC)C(C)C)[C@@H](C)CC` [IGKKFKRIVKRIKKFLRKL]: the MIC came out at 2 µM (≈ 4.8 µg/mL) in [7]; 8 µM (≈ 19.2 µg/mL) in experiment [8]; 8 µM (≈ 19.2 µg/mL) in experiment [9]; 2 µM (≈ 4.8 µg/mL) in experiment [10]; 4 µM (≈ 9.6 µg/mL) in [11]; 4 µM (≈ 9.6 µg/mL) in experiment [12].

Regarding `CC[C@H](C)[C@H](N)C(=O)N[C@@H](CC(C)C)C(=O)N1CCC[C@H]1C(=O)N[C@@H](Cc1c[nH]c2ccccc12)C(=O)N[C@@H](CCCCN)C(=O)N[C@@H](Cc1c[nH]c2ccccc12)C(=O)N1CCC[C@H]1C(=O)N[C@@H](CCCCN)C(=O)N[C@@H](CCCCN)C(=O)N1CCC[C@H]1C(=O)N[C@@H](Cc1c[nH]c2ccccc12)C(=O)N[C@@H](CCCN=C(N)N)C(=O)N[C@@H](CCCN=C(N)N)C(N)=O` [ILPWKWPKKPWRR], the MIC stood at 5.58 µM (≈ 9.99 µg/mL) in experiment [7]; 2.79 µM (≈ 5 µg/mL) in [8]; 22.3 µM (≈ 40 µg/mL) in experiment [9]; 2.79 µM (≈ 5 µg/mL) in [10]; 2.79 µM (≈ 5 µg/mL) in experiment [11]; 2.79 µM (≈ 5 µg/mL) in experiment [12].

With `CC[C@H](C)[C@H](N)C(=O)N[C@@H](CC(C)C)C(=O)N1CCC[C@H]1C(=O)N[C@@H](Cc1c[nH]c2ccccc12)C(=O)N[C@@H](CCCCN)C(=O)N[C@@H](Cc1c[nH]c2ccccc12)C(=O)N1CCC[C@H]1C(=O)N[C@@H](Cc1c[nH]c2ccccc12)C(=O)N[C@@H](Cc1c[nH]c2ccccc12)C(=O)N[C@@H](CCCCN)C(=O)N[C@@H](Cc1c[nH]c2ccccc12)C(=O)N[C@@H](CCCN=C(N)N)C(=O)N[C@@H](CCCN=C(N)N)C(N)=O` [ILPWKWPWWKWRR], the MIC in [7] is 5.16 µM (≈ 10 µg/mL); in [8], 10.3 µM (≈ 20 µg/mL); in experiment [9], 10.3 µM (≈ 20 µg/mL); in experiment [10] it was 5.16 µM (≈ 10 µg/mL); in experiment [11], 2.58 µM (≈ 5 µg/mL); in experiment [12] it was 5.16 µM (≈ 10 µg/mL).

`CC[C@H](C)[C@H](NC(=O)[C@H](CCCCN)NC(=O)[C@H](CC(C)C)NC(=O)[C@H](C)NC(=O)[C@H](CCCCN)NC(=O)[C@H](CC(C)C)NC(=O)[C@H](C)NC(=O)CNC(=O)[C@H](CCCCN)NC(=O)[C@H](C)NC(=O)[C@@H](NC(=O)[C@@H](N)CCCCN)[C@@H](C)CC)C(=O)N[C@@H](C)C(=O)N[C@@H](CCCCN)C(=O)NCC(=O)N[C@@H](C)C(=O)N[C@@H](CC(C)C)C(=O)N[C@@H](CCCCN)C(=O)N[C@@H](C)C(=O)N[C@@H](CC(C)C)C(N)=O` [KIAKGALKALKIAKGALKAL]: the MIC was 1.41 µM (≈ 2.84 µg/mL) in experiment [13]; at least 64 µM against Acinetobacter baumannii; 4 µM (≈ 8.02 µg/mL) in [14]; 64 µM (≈ 128 µg/mL) with Escherichia coli; 2.83 µM (≈ 5.67 µg/mL) in experiment [3]; 8 µM (≈ 16 µg/mL) against Klebsiella pneumoniae. Also, the MIC is 11.3 µM (≈ 22.7 µg/mL) in experiment [4], 11.3 µM (≈ 22.7 µg/mL) with Pseudomonas aeruginosa, 22.6 µM (≈ 45.4 µg/mL) in [6] and 16 µM (≈ 32.1 µg/mL) with Staphylococcus aureus.

With `CC[C@H](C)[C@H](NC(=O)[C@@H](NC(=O)[C@H](CC(C)C)NC(=O)[C@H](C)NC(=O)[C@@H]1CCCN1C(=O)CNC(=O)[C@H](Cc1ccc(O)cc1)NC(=O)[C@@H](N)CCCCN)C(C)C)C(=O)N[C@@H](C)C(=O)N[C@H](C(=O)N[C@@H](CCCCN)C(=O)N[C@@H](CCCCN)C(=O)N[C@@H](CO)C(=O)N[C@@H](CS)C(=O)N[C@@H](CO)C(=O)N[C@@H](CC(C)C)C(=O)N[C@H](C(=O)N[C@@H](Cc1ccccc1)C(=O)N[C@@H](CCCN=C(N)N)C(=O)N[C@@H](C)C(=O)O)[C@@H](C)O)C(C)C` [KYGPALVIAVKKSCSLTFRA], the MIC in the experiment on Bacillus cereus is at least 119 µM; against Escherichia coli, over 119 µM.

`CC(C)C[C@H](NC(=O)[C@H](CCCN=C(N)N)NC(=O)[C@H](CCCN=C(N)N)NC(=O)[C@H](C)NC(=O)[C@H](Cc1c[nH]c2ccccc12)NC(=O)CNC(=O)[C@H](CCCN=C(N)N)NC(=O)[C@@H](N)CCCN=C(N)N)C(=O)N[C@@H](C)C(=O)N[C@@H](Cc1ccccc1)C(=O)NCC(=O)N[C@@H](CCCN=C(N)N)C(=O)N[C@@H](CCCN=C(N)N)C(N)=O` [RRGWARRLAFGRR]: the MIC in experiment [13] is over 30 µM; in experiment [14] it was over 30 µM; in experiment [3], 30 µM (≈ 49.7 µg/mL); in [15], over 30 µM; in experiment [5], over 30 µM; in experiment [6], over 30 µM.

As to `CC[C@H](C)[C@H](NC(=O)[C@@H](NC(=O)[C@@H](NC(=O)[C@@H](NC(=O)[C@H](CCCN=C(N)N)NC(=O)[C@H](CCCCN)NC(=O)[C@@H](NC(=O)CNC(=O)[C@@H]1CCCN1C(=O)[C@@H](NC(=O)[C@H](CO)NC(=O)[C@H](Cc1ccccc1)NC(=O)[C@@H](NC(=O)CNC(=O)[C@H](C)NC(=O)[C@H](CC(C)C)NC(=O)[C@@H]1CCCN1C(=O)[C@H](Cc1ccccc1)NC(=O)[C@H](CCCCN)NC(=O)[C@@H](N)CO)[C@@H](C)CC)C(C)C)C(C)C)C(C)C)C(C)C)C(C)C)C(=O)O` [SKFPLAGIFSVPGVKRVVVI], the MIC was at least 121 µM in the experiment on Bacillus cereus and over 121 µM in the experiment on Escherichia coli.

On to `CC[C@H](C)[C@H](NC(=O)[C@H](Cc1ccccc1)NC(=O)[C@H](CCCCN)NC(=O)[C@H](C)NC(=O)[C@H](CC(C)C)NC(=O)[C@H](CC(=O)O)NC(=O)[C@H](CCCCN)NC(=O)[C@@H](N)C(C)C)C(=O)N[C@@H](C)C(=O)N[C@@H](CCCCN)C(=O)N[C@H](C(=O)N[C@H](C(=O)N[C@@H](C)C(=O)N[C@@H](CCCCN)C(=O)N[C@@H](CCC(N)=O)C(=O)NCC(=O)NCC(=O)N[C@@H](CS)C(=O)N[C@@H](Cc1ccc(O)cc1)C(=O)N[C@@H](CC(C)C)C(=O)O)C(C)C)[C@@H](C)O` [VKDLAKFIAKTVAKQGGCYL], for which the MIC against Bacillus cereus is at least 59.4 µM; with Escherichia coli it was over 59.4 µM.

The values are drawn from DBAASP.
